Source: patent US9452164B2, “Imidazopyridine derivatives, process for preparation thereof and therapeutic use thereof” (SANOFI, priority 2010, dated 2016)
Counter-ions that a name gives are not always drawn.

Assays:
OF1 female mice = experiment: Model of inflammatory angiogenesis in mice (air pocket granuloma, carmine red dye); format: in vivo; conditions: for % inhibition of the angiogenic parameter (dye content) / % inhibition of the inflammatory parameter (mass of the granuloma): daily oral, mice; for dye content corresponding to the angiogenesis / weight of the granuloma (dry weight of the skin), inflammation part: one week of daily treatment
Method: The model described by Colville-Nash et al., in 1995, makes it possible to study pharmacological agents capable of modulating the occurrence of angiogenesis in an inflammatory context. The model is developed on OF1 female mice (Charles River Laboratories) weighing approximately 25 g, and by groups of 12. The animals are anaesthetized with sodium pentobarbital (60 mg/kg; Sanofi Nutrition Sante animale)) intraperitoneally. An air pocket is created on the back of the mouse by subcutaneous injection of 3 ml of air. After they have awoken, the animals receive a treatment generally by gavage, and receive an injection of 0.5 ml of Freund's adjuvant (Sigma) with 0.1% of croton oil (Sigma) in the pocket. Seven days later, the mice are again anaesthetized and placed on a hot plate at 40° C. One ml of carmine red (Aldrich Chemicals, 5% in 10% of gelatin) is injected into the tail vein. The animals are then placed at 4° C. for 2-3 hours. The skins are then taken and dried for 24 h in an oven at 56° C. The dry tissues are weighed and placed in 1.8 ml of digestion solution (2 mM dithiothreitol, 20 mM Na2HPO4, 1 mM EDTA, 12 U/ml papain) for 24 h. The dye is then dissolved in 0.2 ml of 5M NaOH. The skins are centrifuged at 2000 rpm for 10 min at ambient temperature. The supernatants are filtered through 0.2 μm cellulose acetate membranes. The filtrates are read in a spectrophotometer at 492 nm against a carmine red calibration range. Two parameters are studyed: the dry weight of the granuloma and the amount of dye after digestion of the tissues. The results are expressed as mean values (±sem). The differences between the groups are tested with an ANOVA followed by a Dunnett's test, of which the reference group is the “solvent control” group.
The FGF-R antagonists are evaluated between 1 and 50 mg/kg using methylcellulose/tween (0.6% v/v) as vehicle or any other vehicle which allows the active ingredient to be solubilized. The molecules are administered daily, orally (one or two times a day) by gavage. The antagonists of the present invention are considered to be active as long as they enable a significant reduction in the angiogenic parameter, i.e. a reduction in the amount of carmine red dye in the skins of the animals tested.

[1] = test system: HUVEC cells stimulated with FGF-2; experiment: FGF-2-induced in vitro proliferation of HUVEC cells; format: cell-based, human; conditions: HUVEC stimulated with FGF-2, ATP luminescence
Method: To do this, HUVEC human vein endothelial cells (promocell, C-12200) are seeded at a rate of 5000 cells per well of a 96-well plate (Biocoat collagen I cellware, Becton Dickinson 354650) in 100 μl of RPMI 1640 deprivation medium (Invitrogen, 31872-025) supplemented with 0.5% or 1% FCS, 2 mM glutamine, 1× sodium pyruvate (Invitrogen; 11360-039) and 1×NEAA (Invitrogen, 11140-035), overnight at 37° C. in the presence of 5% CO2. The following morning, the medium is suctioned-off and replaced with 50 μl of deprivation medium containing the antagonists at a 2× concentration, to which are added 50 μl of FGF-2 (R&D systems, 133-FB-025; Invitrogen, PHG0026) at 0.2 ng/ml (i.e. 2×). After 48 or 72 h, 100 μl of Cell Titer-GLO™ Luminescent Cell Viability Assay (Promega, G7571) are added for 10 min in order to measure, by means of a luminometer, the amount of ATP present in the cells and which is in relation to the number of cells per well corresponding to the cell proliferation.
The antagonists of the present invention are considered to be active as long as they are capable of inhibiting FGF-2-induced proliferation of HUVEC cells at a dose less than or equal to 300 nM.

[2] = test system: HUVEC cells stimulated with FGF-2; experiment: FGF-2-induced in vitro angiogenesis of HUVEC cells; format: cell-based, human; conditions: HUVEC stimulated with FGF-2, 24 h, pseudotubule network length
Method: To do this, matrices composed of matrigel (growth factor reduced matrigel, Becton Dickinson 356230) and collagen (rat tail collagen type I, Becton Dickinson 354236) are deposited, at a rate of 160 μl, into each chamberslide well (Biocoat Cellware collagen, Type I, 8-well culturesides: Becton Dickinson 354630), or 60 μl per well of 96-well plates (Biocoat collagen I cellware, Becton Dickinson 354407). The matrix is prepared by mixing ⅓ of matrigel, 1 mg/ml final concentration of collagen, 0.1N NaOH (0.026× the volume of collagen in μl) and 1×PBS, and the volume is then adjusted with water. The gels are kept at 37° C. for 1 hour so as to allow them to polymerize. […] After 24 hours, the length of the network of microtubules formed was measured using a computer-assisted image analysis system (Imagenia Biocom, Courtaboeuf, France) and the total length of the pseudotubules in each well was determined. The average total length of the microcapillary network was calculated in μm for each condition corresponding to the average of 6 replicates. […]
In this experiment, the molecules are evaluated at 3 and 30 nM on induction of the angiogenesis of HUVEC human cells by FGF-2.

CCCn1c(=O)n(CCOc2ccc(F)cc2)c(=O)c2cc(C(=O)c3nc(-c4cccc(C(=O)[O-])c4)c4ccccn34)ccc21.[Na+] [Compound No. 223, Sodium Salt of 3-[3-({3-[2-(4-fluorophenoxy)ethyl]-1-propyl-2,4-dioxo-1,2,3,4-tetrahydroquinazolin-6-yl}carbonyl)imidazo[1,5-a]pyridin-1-yl]benzoic acid]
% inhibition of the angiogenic parameter (dye content) (OF1 female mice; 10 mg/kg, one week): 43%
% inhibition of the inflammatory parameter (mass of the granuloma) (OF1 female mice; 10 mg/kg, one week): 25%

CCCn1c(=O)[nH]c2ccc(C(=O)c3nc(-c4cccc(C(N)=O)c4)c4ccccn34)cc2c1=O [Compound No. 29, 3-{3-[(2,4-Dioxo-3-propyl-1,2,3,4-tetrahydroquinazolin-6-yl)carbonyl]imidazo[1,5-a]pyridin-1-yl}benzamide]
melting point: 345 to 346 °C

Cn1c(=O)n(Cc2ccc(F)cc2)c(=O)c2cc(C(=O)c3nc(-c4cccc(C(=O)[O-])c4)c4ccccn34)ccc21.[Na+] [Compound No. 49, Sodium Salt of 3-(3-{[3-(4-fluorobenzyl)-1-methyl-2,4-dioxo-1,2,3,4-tetrahydroquinazolin-6-yl]carbonyl}imidazo[1,5-a]pyridin-1-yl)benzoic acid]
% inhibition of the angiogenic parameter (dye content) (OF1 female mice; 10 mg/kg, one week): 46%
% inhibition of the inflammatory parameter (mass of the granuloma) (OF1 female mice; 10 mg/kg, one week): 40%
dye content corresponding to the angiogenesis (OF1 female mice; 10 mg/kg): significantly reduce
weight of the granuloma (dry weight of the skin), inflammation part (OF1 female mice; 10 mg/kg): significantly reduce
inhibition of proliferation as percentage of the control ([1]; 30 nM): 9%
inhibition of proliferation as percentage of the control ([1]; 300 nM): 29%

O=C(c1ccc2nc[nH]c(=O)c2c1)c1ncc2ccccn12 [Compound No. 3, 6-(Imidazo[1,5-a]pyridin-3-ylcarbonyl)quinazolin-4(3H)-one]
melting point: 289 °C

CCCn1c(=O)[nH]c2ccc(C(=O)c3nc(-c4cccc(-c5nc(C)no5)c4)c4ccccn34)cc2c1=O [Compound No. 36, 6-({1-[3-(3-Methyl-1,2,4-oxadiazol-5-yl)phenyl]imidazo[1,5-a]pyridin-3-yl}carbonyl)-3-propylquinazoline-2,4(1H,3H)-dione]
melting point: 276 to 277 °C

Cl.Cn1c(=O)n(Cc2ccc(F)cc2)c(=O)c2cc(C(=O)c3nc(-c4cccc(C(=O)OCCN5CCOCC5)c4)c4ccccn34)ccc21
melting point: 215 °C

CCCn1c(=O)[nH]c2ccc(C(=O)c3ncc4ccccn34)cc2c1=O [Compound No. 1, 6-(Imidazo[1,5-a]pyridin-3-ylcarbonyl)-3-propylquinazoline-2,4(1H,3H)-dione]
melting point: 304 °C

CCCn1c(=O)[nH]c2ccc(C(=O)c3nc(NS(C)(=O)=O)c4ccccn34)cc2c1=O [Compound No. 13, N-{3-[(2,4-Dioxo-3-propyl-1,2,3,4-tetrahydroquinazolin-6-yl)carbonyl]imidazo[1,5-a]pyridin-1-yl}methanesulphonamide]
melting point: 334 °C

CCCn1c(=O)[nH]c2ccc(C(=O)c3ncc4ccc(C(=O)O)cn34)cc2c1=O [Compound No. 8, 3-[(2,4-Dioxo-3-propyl-1,2,3,4-tetrahydroquinazolin-6-yl)carbonyl]imidazo[1,5-a]pyridine-6-carboxylic acid]
melting point: 384 °C

CCCn1c(C)nc2ccc(C(=O)c3nc(-c4cccc(C(=O)O)c4)c4ccccn34)cc2c1=O [Compound No. 53, 3-{3-[(2-Methyl-4-oxo-3-propyl-3,4-dihydroquinazolin-6-yl)carbonyl]imidazo[1,5-a]pyridin-1-yl}benzoic acid]
melting point: 305 °C

Cn1c(=O)n(Cc2ccc(F)cc2)c(=O)c2cc(C(=O)c3nc(-c4cccnc4)c4ccccn34)ccc21 (as salt: hydrochloride) [Compound No. 113, 3-(4-Fluorobenzyl)-1-methyl-6-[(1-pyridin-3-ylimidazo[1,5-a]pyridin-3-yl)carbonyl]quinazoline-2,4(1H,3H)-dione]
melting point: 267 °C

CCCn1c(=O)n(Cc2ccc(F)cc2)c(=O)c2cc(C(=O)c3nc(-c4cccc(C(=O)[O-])c4)c4ccccn34)ccc21.[Na+] [Compound No. 72, Sodium Salt of 3-(3-{[3-(4-fluorobenzyl)-1-propyl-2,4-dioxo-1,2,3,4-tetrahydroquinazolin-6-yl]carbonyl}imidazo[1,5-a]pyridin-1-yl)benzoic acid]
inhibition of angiogenesis as a percentage of the control ([2]; 3 nM): 36%
inhibition of angiogenesis as a percentage of the control ([2]; 30 nM): 24%
% inhibition of the angiogenic parameter (dye content) (OF1 female mice; 10 mg/kg, one week): 43%
% inhibition of the inflammatory parameter (mass of the granuloma) (OF1 female mice; 10 mg/kg, one week): 38%
dye content corresponding to the angiogenesis (OF1 female mice; 10 mg/kg): significantly reduce
weight of the granuloma (dry weight of the skin), inflammation part (OF1 female mice; 10 mg/kg): significantly reduce
inhibition of proliferation as percentage of the control ([1]; 30 nM): 38%
inhibition of proliferation as percentage of the control ([1]; 300 nM): 55%

CCCn1c(C)nc2ccc(C(=O)c3nc(-c4cccc(C(N)=O)c4)c4ccccn34)cc2c1=O [Compound No. 55, 3-{3-[(2-Methyl-4-oxo-3-propyl-3,4-dihydroquinazolin-6-yl)carbonyl]imidazo[1,5-a]pyridin-1-yl}benzamide]
melting point: 238 °C

CCCn1c(=O)[nH]c2ccc(C(=O)c3nc(-c4cccc(C(=O)[O-])c4)c4ccccn34)cc2c1=O.[Na+] [Compound No. 10, Sodium Salt of 3-{3-[(2,4-dioxo-3-propyl-1,2,3,4-tetrahydroquinazolin-6-yl)carbonyl]imidazo[1,5-a]pyridin-1-yl}benzoic acid]
% inhibition of the angiogenic parameter (dye content) (OF1 female mice; 30 mg/kg): 19%
% inhibition of the inflammatory parameter (mass of the granuloma) (OF1 female mice; 30 mg/kg): 19%

CN(C)CCNC(=O)c1cccc(-c2nc(C(=O)c3ccc4c(c3)c(=O)n(Cc3ccc(F)cc3)c(=O)n4C)n3ccccc23)c1.Cl
melting point: 247 °C
